Assay results reported in patent publication US11065314B2, “Peptides and combination of peptides for use in immunotherapy against breast cancer and other cancers” (Immatics Biotechnologies GmbH, priority 2015, dated 2021).

Assays:
HLA-A*02:01 = HLA-A*02:01 (Homo sapiens, UniProt P04439, D140Y/D185E/D98H/E176V/E277Q/G131W/G231S/I119V/I121R/I166T/I218V/L300P/L318F/N151K/N90K/P208A/P217A/Q86G/Q94H/R138H/R169H/T345S); test: MHC binding assay: UV-ligand exchange with β2m ELISA; conditions: binding to HLA-A*02:01, UV-ligand exchange
From the text: Candidate peptides for T cell based therapies according to the present invention were further tested for their MHC binding capacity (affinity). The individual peptide-MHC complexes were produced by UV-ligand exchange, where a UV-sensitive peptide is cleaved upon UV-irradiation, and exchanged with the peptide of interest as analyzed. Only peptide candidates that can effectively bind and stabilize the peptide-receptive MHC molecules prevent dissociation of the MHC complexes. To determine the yield of the exchange reaction, an ELISA was performed based on the detection of the light chain (β2m) of stabilized MHC complexes. The assay was performed as generally described in Rodenko et al. (Rodenko et al., 2006).
96 well MAXISorp plates (NUNC) were coated over night with 2 ug/ml streptavidin in PBS at room temperature, washed 4× and blocked for 1 h at 37° C. in 2% BSA containing blocking buffer. Refolded HLA-A*02:01/MLA-001 monomers served as standards, covering the range of 15-500 ng/ml. Peptide-MHC monomers of the UV-exchange reaction were diluted 100-fold in blocking buffer. Samples were incubated for 1 h at 37° C., washed four times, incubated with 2 ug/ml HRP conjugated anti-β2m for 1 h at 37° C., washed again and detected with TMB solution that is stopped with […]. Absorption was measured at 450 nm. Candidate peptides that show a high exchange yield (preferably higher than 50%, most preferred higher than 75%) are generally preferred for a generation and production of antibodies or fragments thereof, and/or T cell receptors or fragments thereof, as they show sufficient avidity to the MHC molecules and prevent dissociation of the MHC complexes.

[1] = system: CD8+ T cells of healthy HLA-A*02 donors; test: In vitro T-cell priming (aAPC with pMHC and anti-CD28), pMHC multimer readout; type: cell-based, human; conditions: for Wells positive [%]: HLA-A*02 restricted peptides, positive wells and donors among evaluable, Table 10B
From the text: In order to obtain information regarding the immunogenicity of the TUMAPs of the present invention, the inventors performed investigations using an in vitro T-cell priming assay based on repeated stimulations of CD8+ T cells with artificial antigen presenting cells (aAPCs) loaded with peptide/MHC complexes and anti-CD28 antibody.
In order to perform in vitro stimulations by artificial antigen presenting cells loaded with peptide-MHC complex (pMHC) and anti-CD28 antibody, the inventors first isolated CD8+ T cells from fresh HLA-A*02 leukapheresis products via positive selection using CD8 microbeads (Miltenyi Biotec, Bergisch-Gladbach, Germany) of healthy donors obtained from the University clinics Mannheim, Germany, after informed consent.
PBMCs and isolated CD8+ lymphocytes were incubated in T-cell medium (TCM) until use consisting of RPMI-Glutamax (Invitrogen, Karlsruhe, Germany) supplemented with 10% heat inactivated human AB serum (PAN-Biotech, Aidenbach, Germany), 100 U/ml Penicillin/100 μg/ml Streptomycin (Cambrex, Cologne, Germany), 1 mM sodium pyruvate (CC Pro, Oberdorla, Germany), 20 μg/ml Gentamycin (Cambrex). 2.5 ng/ml IL-7 (PromoCell, Heidelberg, Germany) and 10 U/ml IL-2 (Novartis Pharma, Nümberg, Germany) were also added to the TCM at this step.
Generation of pMHC/anti-CD28 coated beads, T-cell stimulations and readout was performed in a highly defined in vitro system using four different pMHC molecules per stimulation condition and 8 different pMHC molecules per readout condition.
The purified co-stimulatory mouse IgG2a anti human CD28 Ab 9.3 (Jung et al., 1987) was chemically biotinylated using Sulfo-N-hydroxysuccinimidobiotin as recommended by the manufacturer (Perbio, Bonn, Germany). Beads used were 5.6 μm diameter streptavidin coated polystyrene particles (Bangs Laboratories, Illinois, USA).
800.000 beads/200 μl were coated in 96-well plates in the presence of 4×12.5 ng different biotin-pMHC, washed and 600 ng biotin anti-CD28 were added subsequently in a volume of 200 μl. Stimulations were initiated in 96-well plates by co-incubating 1×10^6 CD8+ T cells with 2×10^5 washed coated beads in 200 μl TCM supplemented with 5 ng/ml IL-12 (PromoCell) for 3 days at 37° C. Half of the medium was then exchanged by fresh TCM supplemented with 80 U/ml IL-2 and incubating was continued for 4 days at 37° C. This stimulation cycle was performed for a total of three times. For the pMHC multimer readout using 8 different pMHC molecules per condition, a two-dimensional combinatorial coding approach was used as previously described (Andersen et al., 2012) with minor modifications encompassing coupling to 5 different fluorochromes. Finally, multimeric analyses were performed by staining the cells with Live/dead near IR dye (Invitrogen, Karlsruhe, Germany), CD8-FITC antibody clone SK1 (BD, Heidelberg, Germany) and fluorescent pMHC multimers. For analysis, a BD LSRII SORP cytometer equipped with appropriate lasers and filters was used. Peptide specific cells were calculated as percentage of total CD8+ cells. Evaluation of multimeric analysis was done using the FlowJo software (Tree Star, Oregon, USA). In vitro priming of specific multimer+CD8+ lymphocytes was detected by comparing to negative control stimulations.

Row | Sequence | Peptide Exchange (peptide exchange yield) (HLA-A*02:01) | Wells positive [%] [1] | wells (in vitro immunogenicity, positive wells) ([1]; HLA class I peptides, Table 10A)
1 | ALAGSSPQV (listed as Homo sapiens) [SEQ ID NO: 2, HLA-A*02 peptide, source gene CNTD2] | “+++” (≥50 = +++) | “++” (20%-49% = ++) | –
2 | GLLGFQAEA (listed as Homo sapiens) [SEQ ID NO: 24, HLA-A*02 peptide, source gene MAGED1] | “++++” (≥75% = ++++) | “++” (20%-49% = ++) | –
3 | KMPEHISTV (listed as Homo sapiens) [SEQ ID NO: 1, HLA-A*02 peptide, source gene CILP] | “+++” (≥50 = +++) | “+” (<20% = +) | –
4 | SLADAVEKV (listed as Homo sapiens) [SEQ ID NO: 23, HLA-A*02 peptide, source gene CCDC122] | “+++” (≥50 = +++) | “+++” (50%-69% = +++) | –
5 | SLLTEPALV (listed as Homo sapiens) [SEQ ID NO: 21, HLA-A*02 peptide, source gene TBC1D9] | “+++” (≥50 = +++) | “++” (20%-49% = ++) | –
6 | TLSSIKVEV (listed as Homo sapiens) [SEQ ID NO: 50, peptide useful for personalized cancer therapies, source gene MXRA5] | – | – | + (<20% = +)
7 | YIDGLESRV (listed as Homo sapiens) [SEQ ID NO: 22, HLA-A*02 peptide, source gene CREB3L4] | “+++” (≥50 = +++) | “+” (<20% = +) | –
